According to a melting point compilation (Tetko et al.; mined from patent text by program, amines drawn as free bases though some values may be those of a salt):

Structure (SMILES) | melting point [°C]
CSC1=NCCN1C(=O)c1cccnc1Cl | 100 to 102
Clc1c2c(nc3ccc(C4CCCCC4)cc13)CCCC2 | 89 to 91
Cc1ccc(NC(=O)N[C@@H]2N=C(c3ccccc3)c3ccccc3N(C)C2=O)cc1 | 233 to 235
CCOCC(O)(COCC)C(Cc1ccc2ccccc2c1)[N+](=O)[O-] (stereo unspecified) | 87
CC(=O)Nc1ccc(-c2nc(C(=O)Nc3nccs3)c(-c3ccccc3C)[nH]2)cc1 | 269 to 271
CCOC(=O)C(Sc1ccc(O)cc1)c1ccc(Cl)cc1 (stereo unspecified) | 63
COC(=O)NCC1CN(c2ccc(-n3cnc(Cn4cccn4)c3)c(F)c2)C(=O)O1 (stereo unspecified) | 130
CCCN(CCC)C1Cc2cccc3nc(SC)n(c23)C1 (stereo unspecified) | 49 to 52
CN1C(=O)CCC1(O)c1ccc(Cl)c(S(=O)(=O)NCc2ccccc2Cl)c1 (stereo unspecified) | 144 to 145
Cc1ccc2oc(C(O)[C@H](C)NC(=O)OCc3ccccc3)nc2c1 (stereo partly specified) | 134 to 135
O=C1NCCN(NC(=O)c2ccc(O)c(O)c2)C1=O | 294
CCN(CC)C(=O)/C=C(\C)c1ccc(OC(C)c2ccccc2)c2oc(C(C)=O)cc12 (stereo unspecified) | 70.8 to 73
CCOC(=O)c1cccc(-c2c(OC)cccc2C(=O)O)c1 | 128 to 129
CC(=O)c1ccc(-c2ccc(Br)cc2)c(Br)c1 | 82.5 to 84.5
COC(=O)Cc1ccc(CN2CCN(C(c3ccccc3)c3ccccn3)CC2)cc1 (stereo unspecified) | 122 to 123
COc1cc2c(cc1S(C)(=O)=O)nc(C)n2C(C)C | 161 to 165
O=C(Nc1ccc2c(c1)OCC(=S)N2)C(=O)N1CCC(Cc2ccccc2)CC1 | 193 to 196
COc1ccc(-c2cc(C(=O)NCc3ccccn3)c(=O)n(CC3CCCC3)n2)cc1 | 127 to 128
COc1ccc(Oc2cc3nc(-c4ccc(Cl)cc4Cl)oc3cc2[N+](=O)[O-])cc1 | 144 to 146
CC(C)(C)c1cc(-c2nc(C(Cl)(Cl)Cl)no2)cc(C(C)(C)C)c1O | 100 to 102
CCC(Oc1ccc(C(C)(C)CC)cc1C(C)(C)CC)C(=O)Nc1cc(O)c(NC(=O)c2ccccc2)cc1Cl (stereo unspecified) | 190 to 191
COc1nc2sc(S(=O)(=O)Cc3ccccc3)nn2c(=O)c1[N+](=O)[O-] | 216 to 218
CCCC(=O)ONC(=N)c1ccc(NC(=O)CCCC(=O)Nc2ccc(C(=N)NOC(=O)CCC)cc2)cc1 | 194 to 196
CCOC(=O)C(Br)=NNc1ccccc1 | 82 to 83

Structure (SMILES) | melting point [°C]
COc1ccc(C(=O)CC2CCCCCCC2=O)cc1 (stereo unspecified) | 54 to 56
CSc1nc2ccc(Br)cc2c(=O)[nH]1 | 230
CN1CCC=C(c2cccc3[nH]ccc23)C1 | 175
COc1ccc(-c2nc(NC(=O)c3ccccc3)sc2-c2ccnc(NC(=O)c3ccccc3)c2)cc1 | 230 to 233
O=C1CCC(N2C(=O)c3cccc(NC(=O)COCc4ccccc4)c3C2=O)C(=O)N1 (stereo unspecified) | 204 to 206
CCCCC(CC(=O)Nc1cc(C(N)=O)ccc1C(C)(C)C)c1cc(Cl)c(OCCCOC)cc1OC (stereo unspecified) | 176 to 190
CC(=O)C(CCCCCCc1ccc(O)cc1)C(C)=O | 68 to 69
CC(C)(C)OC(=O)NCC(=O)Nn1cccc1C(=O)c1ccccc1F | 114 to 116
COCc1cn(-c2ccccc2)nc1OCc1ccc(OCc2nc(-c3ccco3)oc2C)c(OC)c1 | 121 to 122
COc1ccc(C(=O)Nc2cc(OC)c(Cl)cc2OC)cc1F | 197 to 199
Nc1nc(-c2ccc(CCN3CCN(c4cccc5cc(Cl)ccc45)CC3)cc2)cs1 | 210 to 215
O=C(O[C@H]1OCCN(Cc2ccccc2)[C@H]1c1ccc(F)cc1)c1cc(C(F)(F)F)cc(C(F)(F)F)c1 | 102 to 103
Cc1ccc(OC2=NS(=O)(=O)N=C(Oc3ccc(C)cc3)N2C)cc1 | 282 to 286
N#CN=C(Nc1cccnc1)NC1CCCCC1 | 185 to 186
Oc1ccc(P(c2ccc(O)cc2)c2ccc(O)cc2)cc1 | 128 to 133
CCOC(=O)c1cnc2c(OC)csc2c1Cl | 135 to 137
COc1ccc(C(=O)Nc2cccc(C(C)(C)CNC(C)=O)c2)cc1OC | 132 to 134
O=C(O)C1C=COc2cc(Cl)c(Cl)cc21 (stereo unspecified) | 114 to 117
CC1(C)CCc2c(N3CCOCC3)nc3sc4c(NCCCN5CCCC5=O)ncnc4c3c21 | 142 to 143
CC(C)(C)OC(=O)NC(COCc1ccccc1)C(=O)N1CCOCC1 (stereo unspecified) | 87 to 88
COCCOc1cc(N(C)S(=O)(=O)c2cccs2)c2[nH]c(C3=NCC(CC(N)=O)S3)cc2c1 (stereo unspecified) | 189 to 190
CC(C)(C)c1nc2cc(N3CCN(S(C)(=O)=O)CC3)c(N)cc2s1 | 153 to 155
Cc1nn(C)c2c(=O)n(-c3ccc(Cl)c(Cl)c3)cnc12 | 250 to 251
COc1cccc(COc2cc3c(cc2-c2cc(C=CC(=O)O)ccc2O)C(C)(C)CCC3(C)C)c1 | 113 to 115

Structure (SMILES) | melting point [°C]
CC1N(C)c2cc([N+](=O)[O-])ccc2C1(C)C (stereo unspecified) | 55 to 59
NC(=NO)c1cccc(-c2nc3sccn3c2-c2ccnc(NC3CCCN(S(=O)(=O)c4ccc(Cl)cc4)C3)n2)c1 (stereo unspecified) | 272 to 273
CN1CCC(c2cn(S(=O)(=O)c3c(F)cccc3F)c3ccc(OS(=O)(=O)c4c(F)cccc4F)cc23)CC1 | 95 to 98
CC(C)(C)c1ccc(S(=O)(=O)Nc2cc(Cl)ncn2)cc1 | 225 to 226
COC(=O)CNC(=O)c1ccc2ccccc2c1 | 118
COc1ccc(S(=O)(=O)N2c3ccc(Br)cc3-c3ccccc3C2C)cc1 (stereo unspecified) | 192 to 194
CN(C)C(=NC(=Nc1ccccc1)N1CCOCC1)N(C)C | 115 to 119
NC(=O)N1CC(Oc2ccc(Cl)cc2Cl)C1 | 169 to 170
Cc1cccc2c(=O)[nH]c(CCN3CC[C@H](O)C3)cc12 | 176 to 178
COC(=O)Oc1c(OC)cc(OC)c2ccccc12 | 128 to 129
CCCC(=NOCC)C1=C(O)CC(c2cc(C3CCOC3)no2)CC1=O (stereo unspecified) | 85
O=C(Nc1ccc([N+](=O)[O-])cc1)C(=O)N1CCC(Cc2ccc(F)cc2)CC1 | 157 to 159
Cn1nc(-c2ncc(Cl)cc2F)c(Cl)c1OC(F)F | 95 to 96
CCOC(=O)C(=CNc1ccc(C)cc1CO)C(=O)OCC | 92 to 95
COc1nc2cc(Br)c(Br)c(NS(C)(=O)=O)c2nc1OC | 186 to 187
COC(=O)c1nnc(NC(=O)CCCOc2cccc(CN3CCCCC3)c2)n1C | 108 to 110
OC1(C=Cc2ccc(-c3cccnc3)cc2)CN2CCC1CC2 (stereo unspecified) | 195 to 198
CCCN(CCC)[C@H]1COc2c(F)ccc(C(=O)NC)c2C1 | 72 to 73
O=C(OCc1ccccc1)N1C(=O)[C@H](O)[C@@H]1c1ccccc1 | 105 to 106
Cc1cc(OCC2CO2)c2cc(C(=O)N(C)C)[nH]c2c1 (stereo unspecified) | 197 to 204
COc1ccc(NC(=O)c2ccc(Br)cc2)cc1N1CCN(C(=O)OC(C)(C)C)CC1 | 156 to 158
CCOC(=O)c1cc2c(OCc3ccccc3)ccc3c(CC)c(-c4ccc(OCc5ccccc5)cc4)c1n23 | 114 to 116
CCCCSc1nc(O)ns1 | 78
